Reference: PMC3713097 (Chemical research in toxicology, 2013)
Like-named read-outs stand apart in the source and are kept apart here.

How the values were obtained:
P450 2A6 [1] = target: T1, P450 2A6 (Homo sapiens, UniProt P11509); conditions: 10 nM P450, 2.5 µM procarcinogen, means ± range of duplicate experiments
T1 sequence (P11509 1-494): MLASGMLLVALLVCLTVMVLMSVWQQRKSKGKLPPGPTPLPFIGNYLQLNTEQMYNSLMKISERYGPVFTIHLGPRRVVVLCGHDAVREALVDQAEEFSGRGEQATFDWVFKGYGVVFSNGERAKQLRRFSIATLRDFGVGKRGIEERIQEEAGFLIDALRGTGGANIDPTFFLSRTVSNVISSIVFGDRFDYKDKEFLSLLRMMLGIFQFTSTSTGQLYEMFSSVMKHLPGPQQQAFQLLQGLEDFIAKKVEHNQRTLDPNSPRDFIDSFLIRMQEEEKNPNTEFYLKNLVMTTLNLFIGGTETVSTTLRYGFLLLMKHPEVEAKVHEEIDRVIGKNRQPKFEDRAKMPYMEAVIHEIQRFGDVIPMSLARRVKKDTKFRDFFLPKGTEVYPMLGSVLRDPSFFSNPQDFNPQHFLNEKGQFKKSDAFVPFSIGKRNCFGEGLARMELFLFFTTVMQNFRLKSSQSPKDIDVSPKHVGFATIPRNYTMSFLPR

human P450 2A13 = target: T2, human P450 2A13 (Homo sapiens, UniProt Q16696); conditions: 10 nM P450, 2.5 µM procarcinogen, means ± range of duplicate experiments
T2 sequence (Q16696 31-494 limits assumed): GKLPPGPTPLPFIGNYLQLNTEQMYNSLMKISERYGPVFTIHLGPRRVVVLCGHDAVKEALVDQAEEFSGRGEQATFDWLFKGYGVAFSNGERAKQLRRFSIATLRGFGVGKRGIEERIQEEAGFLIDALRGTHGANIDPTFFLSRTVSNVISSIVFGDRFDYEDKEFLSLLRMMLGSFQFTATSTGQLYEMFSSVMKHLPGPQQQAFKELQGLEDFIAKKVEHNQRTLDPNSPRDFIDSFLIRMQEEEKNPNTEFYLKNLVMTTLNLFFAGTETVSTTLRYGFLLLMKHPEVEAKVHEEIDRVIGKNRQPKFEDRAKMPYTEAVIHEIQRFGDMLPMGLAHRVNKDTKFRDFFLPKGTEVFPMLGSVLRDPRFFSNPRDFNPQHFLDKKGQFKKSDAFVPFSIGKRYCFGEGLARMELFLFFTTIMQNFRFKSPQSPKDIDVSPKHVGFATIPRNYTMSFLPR

P450 2A13 = target: T3, P450 2A13 (Homo sapiens, UniProt Q16696); test: Spectral binding titration with purified P450 2A13
T3 sequence (Q16696 with tags, fused parts or gaps limits assumed): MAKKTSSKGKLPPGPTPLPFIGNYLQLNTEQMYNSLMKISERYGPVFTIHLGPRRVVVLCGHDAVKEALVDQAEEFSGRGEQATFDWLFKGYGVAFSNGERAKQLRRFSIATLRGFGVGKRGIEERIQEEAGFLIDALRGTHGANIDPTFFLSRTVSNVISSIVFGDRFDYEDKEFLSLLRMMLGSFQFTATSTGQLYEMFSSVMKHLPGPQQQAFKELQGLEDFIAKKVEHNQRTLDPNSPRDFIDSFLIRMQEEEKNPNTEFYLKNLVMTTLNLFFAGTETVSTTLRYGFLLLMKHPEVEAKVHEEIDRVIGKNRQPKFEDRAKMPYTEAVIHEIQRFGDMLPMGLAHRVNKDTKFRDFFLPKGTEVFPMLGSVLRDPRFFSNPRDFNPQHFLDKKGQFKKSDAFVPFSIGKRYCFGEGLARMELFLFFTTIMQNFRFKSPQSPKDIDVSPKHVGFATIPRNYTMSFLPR

P450 1B1 [2] = target: T4, P450 1B1 (Homo sapiens, UniProt Q16678, L432V); test: Spectral binding titration with purified P450 1B1
T4 sequence (Q16678 1-543 L432V): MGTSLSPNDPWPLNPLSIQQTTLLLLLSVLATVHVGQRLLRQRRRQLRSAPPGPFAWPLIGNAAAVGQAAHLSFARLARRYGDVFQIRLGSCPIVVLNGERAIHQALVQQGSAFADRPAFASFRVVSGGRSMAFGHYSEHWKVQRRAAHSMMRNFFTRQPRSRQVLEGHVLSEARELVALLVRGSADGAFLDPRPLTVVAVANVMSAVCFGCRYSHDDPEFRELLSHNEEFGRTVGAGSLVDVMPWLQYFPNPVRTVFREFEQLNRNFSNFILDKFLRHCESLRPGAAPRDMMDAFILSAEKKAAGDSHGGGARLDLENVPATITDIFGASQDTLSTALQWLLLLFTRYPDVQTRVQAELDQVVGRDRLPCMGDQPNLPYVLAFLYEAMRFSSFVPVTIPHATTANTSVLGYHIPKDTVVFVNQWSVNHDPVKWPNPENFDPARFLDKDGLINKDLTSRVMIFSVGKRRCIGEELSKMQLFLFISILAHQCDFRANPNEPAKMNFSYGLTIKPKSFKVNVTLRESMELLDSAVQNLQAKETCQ

P450 2A6 [3] = target: T1, P450 2A6; test: Spectral binding titration with purified P450 2A6
P450 1B1 [4] = target: T4, P450 1B1; conditions: 10 nM P450, 2.5 µM procarcinogen, means ± range of duplicate experiments
[5] = P450 1B1, Reverse Type I spectra
[6] = P450 1B1, Reverse Type I spectra, ± SE

O=[N+]([O-])c1ccc2ccc3cccc4ccc1c2c34 [1-nitropyrene]
activation of procarcinogens umu gene expression (P450 2A6 [1]): <10 units/min/nmol P450
activation of procarcinogens umu gene expression (human P450 2A13): <10 units/min/nmol P450
Kd (P450 2A13): 0.23 ± 0.08 µM
ΔAmax/ Ks (P450 2A13; P450 2A13, Type I spectra): 0.24
ΔAmax (P450 2A13; P450 2A13, Type I spectra, ± SE): 0.055 ± 0.004
ΔAmax/ Ks (P450 1B1 [2]; [5]): 0.026
ΔAmax (P450 1B1 [2]; [6]): 0.037 ± 0.001
Kd (P450 1B1 [2]; human, pH 7.4): 1.4 ± 0.001 µM
Kd (P450 2A6 [3]): > 20 µM
activation of procarcinogens umu gene expression (P450 1B1 [4]): <10 units/min/nmol P450

Nc1ccc2cc3ccccc3cc2c1 [2-AA, 2-aminoanthracene]
activation of procarcinogens umu gene expression (P450 2A6 [1]): 1200 ± 89 units/min/nmol P450
activation of procarcinogens umu gene expression (human P450 2A13): 560 ± 40 units/min/nmol P450
Kd (P450 2A13): > 20 µM
Kd (P450 1B1 [2]): 33 ± 36 µM
ΔAmax/ Ks (P450 1B1 [2]; [5]): 0.0026
ΔAmax (P450 1B1 [2]; [6]): 0.085 ± 0.076
Kd (P450 2A6 [3]): > 20 µM
activation of procarcinogens umu gene expression (P450 1B1 [4]): 1900 ± 210 units/min/nmol P450

CC(=O)Nc1ccc2c(c1)Cc1ccccc1-2 [2-AAF, 2-acetamidofluorene]
activation of procarcinogens umu gene expression (P450 2A6 [1]): <10 units/min/nmol P450
activation of procarcinogens umu gene expression (human P450 2A13): <10 units/min/nmol P450
Kd (P450 1B1 [2]): 20 ± 7.8 µM
ΔAmax/ Ks (P450 1B1 [2]; [5]): 0.0018
ΔAmax (P450 1B1 [2]; [6]): 0.035 ± 0.009
activation of procarcinogens umu gene expression (P450 1B1 [4]): <10 units/min/nmol P450

Nc1ccc2c(c1)Cc1ccccc1-2 [2-AF, 2-aminofluorene]
Kd (P450 2A13): > 20 µM
Kd (P450 1B1 [2]): 4.6 ± 1.3 µM
Kd (P450 2A6 [3]): > 20 µM

Cc1cc2ccccc2c2ccc3ccccc3c12 [5-methylchrysene]
Kd (P450 2A13): > 20 µM
Kd (P450 1B1 [2]): 6.9 ± 2.4 µM
ΔAmax/ Ks (P450 1B1 [2]; [5]): 0.0064
ΔAmax (P450 1B1 [2]; [6]): 0.044 ± 0.008

Cc1cc2ccccc2c2ccc3c(c12)C=CC(O)C3O (stereo not drawn) [5MeCh-1,2-diol, 1,2-dihydroxy-1,2-dihydro-5-methylchrysene]
activation of procarcinogens umu gene expression (P450 2A6 [1]): 52 ± 11 units/min/nmol P450
activation of procarcinogens umu gene expression (human P450 2A13): 86 ± 15 units/min/nmol P450
Kd (P450 2A13): > 20 µM
Kd (P450 1B1 [2]): > 20 µM
activation of procarcinogens umu gene expression (P450 1B1 [4]): 2600 ± 180 units/min/nmol P450

Cc1c2c(c(C)c3ccccc13)C(O)C(O)c1ccccc1-2 (stereo not drawn) [7,12-DMBA-5,6-diol, 5,6-dihydroxy-5,6-dihydro-7,12-dimethylbenz[a]anthracene]
Kd (P450 1B1 [2]): 38 ± 3.7 µM
ΔAmax/ Ks (P450 1B1 [2]; [5]): 0.0012
ΔAmax (P450 1B1 [2]; [6]): 0.044 ± 0.003

c1ccc2cc3c(ccc4ccccc43)cc2c1 [B[a]A, benz[a]anthracene]
Kd (P450 2A13; read-out: Ks, P450 2A13, Type I spectra, 1.0 µM P450, pH 7.4, ± SE): > 20 µM
Kd (P450 1B1 [2]; read-out: Ks, P450 1B1, Reverse Type I spectra, 1.0 µM P450, pH 7.4, ± SE): > 20 µM

c1ccc2c(c1)cc1ccc3cccc4ccc2c1c34 [B[a]P, benzo[a]pyrene]
Kd (P450 2A13): > 20 µM
Kd (P450 1B1 [2]): > 20 µM
Kd (P450 2A6 [3]): > 20 µM

OC1c2cccc3ccc4c5ccccc5cc(c4c23)C1O (stereo not drawn) [B[a]P-4,5-diol, 4,5-dihydroxy-4,5-dihydrobenzo[a]pyrene]
Kd (P450 1B1 [2]): 23 ± 10 µM
